{"source": "paper PMC7226602", "about": "“Exploring Biased Agonism at FPR1 as a Means to Encode Danger Sensing” (Cells, 2020)", "key": {"human FPR1 [1]": {"molecular_target": "T1, human FPR1 (Homo sapiens, UniProt P21462)", "T1 construct": "expressed in transfected cells", "T1 sequence (P21462 1-350)": "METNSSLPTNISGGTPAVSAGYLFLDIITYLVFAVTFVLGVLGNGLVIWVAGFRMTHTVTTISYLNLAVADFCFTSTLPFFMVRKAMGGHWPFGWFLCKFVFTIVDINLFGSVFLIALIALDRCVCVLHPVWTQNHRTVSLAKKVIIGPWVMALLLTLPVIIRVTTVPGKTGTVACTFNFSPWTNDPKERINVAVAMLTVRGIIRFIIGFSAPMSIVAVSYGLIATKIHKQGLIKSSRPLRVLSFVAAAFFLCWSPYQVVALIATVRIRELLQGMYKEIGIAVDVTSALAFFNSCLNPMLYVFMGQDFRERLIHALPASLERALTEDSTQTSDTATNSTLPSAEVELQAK", "assay": "HTRF-based quantification of MAPK/ERK phosphorylation (ERK1/2 Thr202/Tyr204)", "assay_type": "cell-based", "conditions": "HeLa-FPR1 cells serum-starved 2 h, agonist 5 min, 37 °C, HTRF phospho-ERK1/2, four-parameter fit, Hill 1, mean and SEM, at least 5 independent measurements; for EC50: read-out: ERK1/2 Activation logEC50 (converted)"}, "human FPR1 [2]": {"molecular_target": "T1, human FPR1", "assay": "cell-based"}, "[3]": {"conditions": "solvent DMSO; as indicated by the manufacturer; ref manufacturer; cited from earlier work"}, "human FPR1 [4]": {"molecular_target": "T1, human FPR1", "assay": "Flow cytometric analysis of agonist-induced receptor internalization", "assay_type": "cell-based", "conditions": "HeLa-FPR1 cells; for EC50: agonist 15 min, 37 °C, flow cytometry of surface FLAG-FPR1 (M1 antibody), mean and SEM, 6 independent measurements, NR = no response, read-out: Internalization logEC50 (converted)"}, "[5]": {"molecular_target": "human formyl peptide receptor 1 (FPR1), N-terminally FLAG-tagged (human) (UniProt P21462)"}}, "note": "Where a SMILES comes first, the peptide text is derived from it. Where no end group is shown, it is not given here. The star is where a group is joined. For = O=C*"}
{"molecule": "CC[C@H](C)[C@H](NC(=O)[C@H](CC(C)C)NC(=O)[C@H](CCCCN)NC(=O)[C@H](CCSC)NC(=O)[C@H](CC(C)C)NC(=O)[C@@H]1CCCN1C(=O)[C@H](CC(N)=O)NC(=O)[C@@H](NC(=O)[C@H](CCCCN)NC(=O)[C@H](CCCNC(=N)N)NC(=O)[C@H](CCSC)NC(=O)[C@@H]1CCCN1C(=O)[C@@H](NC(=O)[C@H](CCSC)NC=O)[C@@H](C)O)[C@@H](C)O)C(=O)N[C@@H](CC(N)=O)C(=O)O", "note": "[CYTB] (For-MTPMRKTNPLMKLIN-OH)", "values": [{"measurement": "EC50", "setting": "human FPR1 [1]", "value": 7.76, "unit": "µM"}, {"measurement": "EC50", "setting": "human FPR1 [2]", "value": 3.02, "unit": "µM"}]}
{"molecule": "CSCC[C@H](NC=O)C(=O)N[C@@H](CC(C)C)C(=O)N[C@@H](Cc1ccccc1)C(=O)O", "note": "[fMLF, formyl-methionyl-leucyl-phenylalanine]", "values": [{"measurement": "Solubility", "setting": "[3]", "value": 4, "unit": "mg/mL"}]}
{"molecule": "COc1cc(/C=N/NC(=O)c2ccc3c(c2)OCO3)ccc1OCc1ccccc1", "note": "[FPRA14]", "values": [{"measurement": "Solubility", "setting": "[3]", "value": 100, "unit": "mM"}, {"measurement": "agonist-induced FPR1 internalization (decrease of cell surface-associated FPR1 pool), in words", "setting": "human FPR1 [4]; 15 min after agonist addition, flow cytometry", "value": "did not elicit detectable internalization"}, {"measurement": "ERK1/2 Activation logEC50", "setting": "human FPR1 [1]", "value": "−6.06 0.05"}, {"measurement": "cAMP Formation logEC50", "setting": "human FPR1 [2]; HeLa-FPR1 cells, 5 µM forskolin + 500 µM IBMX with agonist, 30 min, 37 °C, HTRF, […], mean and SEM, at least 7 independent measurements", "value": "−5.94 0.19"}]}
{"molecule": "CSCC[C@H](NC=O)C(=O)N[C@@H](CC(N)=O)C(=O)N1CCC[C@H]1C(=O)N[C@@H](CC(C)C)C(=O)N[C@@H](C)C(=O)N[C@@H](CCC(N)=O)C(=O)O", "note": "[MT-ND2] (For-MNPLAQ-OH)", "values": [{"measurement": "EC50", "setting": "human FPR1 [1]", "value": 6.17, "unit": "µM"}, {"measurement": "EC50", "setting": "human FPR1 [2]", "value": 2.04, "unit": "µM"}]}
{"molecule": "CC[C@H](C)[C@H](NC(=O)[C@H](Cc1ccccc1)NC(=O)[C@H](Cc1c[nH]c2ccccc12)NC(=O)[C@H](C)NC(=O)[C@H](CCC(N)=O)NC(=O)[C@H](CCCCN)NC(=O)[C@H](CC(C)C)NC(=O)[C@H](Cc1ccccc1)NC(=O)[C@H](CCC(=O)O)NC(=O)[C@H](CO)NC(=O)[C@@H](NC(=O)[C@H](CCSC)NC(=O)[C@H](C)NC(C)=O)C(C)C)C(=O)N[C@@H](CCC(=O)O)C(=O)N[C@@H](CC(N)=O)C(=O)N[C@@H](CCC(=O)O)C(=O)N[C@@H](CCC(=O)O)C(=O)N[C@@H](CCC(N)=O)C(=O)N[C@@H](CCC(=O)O)C(=O)N[C@@H](Cc1ccc(O)cc1)C(=O)N[C@H](C(=O)N[C@@H](CCC(N)=O)C(=O)N[C@H](C(=O)N[C@H](C(=O)N[C@@H](CCCCN)C(=O)O)C(C)C)[C@@H](C)O)C(C)C", "note": "[Ac2-26] (Ac-AMVSEFLKQAWFIENEEQEYVQTVK-OH)", "values": [{"measurement": "EC50", "setting": "human FPR1 [1]", "value": 74.1, "unit": "µM"}, {"measurement": "EC50", "setting": "human FPR1 [2]", "value": 49, "unit": "µM"}]}
{"molecule": "CC(C)C[C@H](NC(=O)CN)C(=O)N[C@@H](CC(C)C)C(=O)N[C@@H](Cc1c[nH]c2ccccc12)C(=O)N[C@H](C(=O)N[C@@H](CCC(=O)O)C(=O)N[C@H](C(=O)NCC(=O)NCC(=O)N[C@@H](CCC(=O)O)C(=O)NCC(=O)N1CCC[C@H]1C(=O)NCC(=O)N1CCC[C@H]1C(=O)N[C@H](C(=O)O)[C@@H](C)O)C(C)C)C(C)C", "note": "[gG2p20] (H-GLLWVEVGGEGPGPT-OH)", "values": [{"measurement": "Solubility", "setting": "[3]", "value": 2, "unit": "mg/mL"}, {"measurement": "EC50", "setting": "human FPR1 [1]", "value": 0.708, "unit": "µM"}, {"measurement": "EC50", "setting": "human FPR1 [2]; HeLa-FPR1 cells, 5 µM forskolin + 500 µM IBMX with agonist, 30 min, 37 °C, HTRF, […], mean and SEM, at least 7 independent measurements, read-out: cAMP Formation logEC50 (converted)", "value": 0.437, "unit": "µM"}]}
{"molecule": "CSCC[C@H](NC=O)C(=O)N[C@@H](CCSC)C(=O)N[C@@H](Cc1ccc(O)cc1)C(=O)N[C@@H](C)C(=O)N[C@@H](CC(C)C)C(=O)N[C@@H](Cc1ccccc1)C(=O)O", "note": "[MT-ND6] (For-MMYALF-OH)", "values": [{"measurement": "EC50", "setting": "human FPR1 [4]", "value": 0.776, "unit": "µM"}, {"measurement": "EC50", "setting": "human FPR1 [1]", "value": 0.00219, "unit": "µM"}, {"measurement": "EC50", "setting": "human FPR1 [2]", "value": 0.0741, "unit": "µM"}]}
{"molecule": "CC[C@H](C)[C@H](NC(=O)[C@H](CCSC)NC=O)C(=O)N[C@H](C(=O)N[C@H](C(=O)N[C@@H](CC(C)C)C(=O)O)[C@@H](C)CC)C(C)C", "note": "[fMIVIL] (For-MIVIL-OH)", "values": [{"measurement": "EC50", "setting": "human FPR1 [4]", "value": 0.0794, "unit": "µM"}, {"measurement": "EC50", "setting": "human FPR1 [1]", "value": 0.00155, "unit": "µM"}, {"measurement": "EC50", "setting": "human FPR1 [2]", "value": 0.000871, "unit": "µM"}]}
{"molecule": "For-MNPLAQ", "values": [{"measurement": "EmaxA of inhibition of forskolin-induced cAMP formation, HeLa-FPR1 cells (HTRF, 30 min; normalised to forskolin) (fraction of the maximum system response)", "setting": "[5]", "value": 0.63}, {"measurement": "logEC50 of inhibition of forskolin-induced cAMP formation, HeLa-FPR1 cells (HTRF, 30 min) (log M (unit not given))", "setting": "[5]", "value": -5.69}]}
{"molecule": "GLLWVEVGGEGPGPT (not fully specified)", "note": "[gG-2p20 peptide derived from the secreted glycoprotein sgG-2 of herpes simplex virus type 2 (HSV-2)]", "values": [{"measurement": "EmaxA of inhibition of forskolin-induced cAMP formation, HeLa-FPR1 cells (HTRF, 30 min; normalised to forskolin) (fraction of the maximum system response)", "setting": "[5]", "value": 0.68}, {"measurement": "logEC50 of inhibition of forskolin-induced cAMP formation, HeLa-FPR1 cells (HTRF, 30 min) (log M (unit not given))", "setting": "[5]", "value": -6.36}]}
{"molecule": "For-MIVIL", "note": "[formylated pentapeptide fMIVIL from Listeria monocytogenes]", "values": [{"measurement": "EmaxA of agonist-induced FPR1 internalization, HeLa-FPR1 cells (flow cytometry, 15 min; normalised to 10^-4 M W-peptide) (fraction of the maximum system response)", "setting": "[5]", "value": 0.97}, {"measurement": "EmaxA of inhibition of forskolin-induced cAMP formation, HeLa-FPR1 cells (HTRF, 30 min; normalised to forskolin) (fraction of the maximum system response)", "setting": "[5]", "value": 0.82}, {"measurement": "logEC50 of agonist-induced FPR1 internalization, HeLa-FPR1 cells (flow cytometry, 15 min) (log M (unit not given))", "setting": "[5]", "value": -7.1}, {"measurement": "logEC50 of inhibition of forskolin-induced cAMP formation, HeLa-FPR1 cells (HTRF, 30 min) (log M (unit not given))", "setting": "[5]", "value": -9.06}]}
{"molecule": "Ac-AMVSEFLKQAWFIENEEQEYVQTVK", "note": "[acetylated peptide Ac2-26 corresponding to the N-terminus of human annexin A1]", "values": [{"measurement": "EmaxA of inhibition of forskolin-induced cAMP formation, HeLa-FPR1 cells (HTRF, 30 min; normalised to forskolin) (fraction of the maximum system response)", "setting": "[5]", "value": 0.63}, {"measurement": "logEC50 of inhibition of forskolin-induced cAMP formation, HeLa-FPR1 cells (HTRF, 30 min) (log M (unit not given))", "setting": "[5]", "value": -4.31}]}
{"molecule": "For-MMYALF", "values": [{"measurement": "EmaxA of agonist-induced FPR1 internalization, HeLa-FPR1 cells (flow cytometry, 15 min; normalised to 10^-4 M W-peptide) (fraction of the maximum system response)", "setting": "[5]", "value": 0.63}, {"measurement": "EmaxA of inhibition of forskolin-induced cAMP formation, HeLa-FPR1 cells (HTRF, 30 min; normalised to forskolin) (fraction of the maximum system response)", "setting": "[5]", "value": 0.66}, {"measurement": "logEC50 of agonist-induced FPR1 internalization, HeLa-FPR1 cells (flow cytometry, 15 min) (log M (unit not given))", "setting": "[5]", "value": -6.11}, {"measurement": "logEC50 of inhibition of forskolin-induced cAMP formation, HeLa-FPR1 cells (HTRF, 30 min) (log M (unit not given))", "setting": "[5]", "value": -7.13}]}
{"molecule": "For-MTPMRKTNPLMKLIN", "note": "[formylated peptide corresponding to the N-terminus of human cytochrome b (CYTB; f…)]", "values": [{"measurement": "EmaxA of inhibition of forskolin-induced cAMP formation, HeLa-FPR1 cells (HTRF, 30 min; normalised to forskolin) (fraction of the maximum system response)", "setting": "[5]", "value": 0.39}, {"measurement": "logEC50 of inhibition of forskolin-induced cAMP formation, HeLa-FPR1 cells (HTRF, 30 min) (log M (unit not given))", "setting": "[5]", "value": -5.52}]}
{"molecule": "WKYMVM", "note": "[synthetic agonist W-peptide (WKYMVm)]", "values": [{"measurement": "EmaxA of agonist-induced FPR1 internalization, HeLa-FPR1 cells (flow cytometry, 15 min; normalised to 10^-4 M W-peptide) (fraction of the maximum system response)", "setting": "[5]", "value": 1}, {"measurement": "EmaxA of inhibition of forskolin-induced cAMP formation, HeLa-FPR1 cells (HTRF, 30 min; normalised to forskolin) (fraction of the maximum system response)", "setting": "[5]", "value": 0.82}, {"measurement": "logEC50 of agonist-induced FPR1 internalization, HeLa-FPR1 cells (flow cytometry, 15 min) (log M (unit not given))", "setting": "[5]", "value": -7.66}, {"measurement": "logEC50 of inhibition of forskolin-induced cAMP formation, HeLa-FPR1 cells (HTRF, 30 min) (log M (unit not given))", "setting": "[5]", "value": -8.96}]}
